Results on two molecules are retold here after ChEMBL document CHEMBL5120921, “Newly Discovered Peptides from the Coral Heliofungia actiniformis Show Structural and Functional Diversity” (J Nat Prod, 2022).

Assay type in all cases: toxicity
Data set [1] is described as follows: (§1) Cytotoxicity against human 1BR.3.GN cells assessed as cell proliferation at 50 nM measured after 4 days by xCELLigence based analysis relative to control. The note with it: 1BR.3.GN cells, time 4 day, read-out: Activity.
Data set [2] relates to 1BR.3.GN. Described as §1. The settings on record: 1br.3.gn, 96 h, 0.05 µM, time 4 day.
Data set [3] concerns 1BR.3.GN. Description: Cytotoxicity against human 1BR.3.GN cells assessed as cell proliferation at 1250 nM measured after 4 days by xCELLigence based analysis. The settings on record: 96 h, 1.25 µM, time 4 day.

Bridge positions count the residues as written; N and C are the ends. Peptide text beside a SMILES is read from it.

Regarding `CC[C@H](C)[C@H](NC(=O)[C@@H]1CSSC[C@@H]2NC(=O)[C@H](Cc3ccccc3)NC(=O)[C@H](CO)NC(=O)[C@H](CCCNC(=N)N)NC(=O)[C@@H]3CSSC[C@H](NC(=O)[C@H](CCCCN)NC(=O)[C@H](CCC(N)=O)NC(=O)[C@H](CC(=O)O)NC(=O)[C@@H]4CCCN4C2=O)C(=O)N[C@@H](CC(C)C)C(=O)N[C@@H](CCCCN)C(=O)N[C@@H](CC(=O)O)C(=O)N[C@@H](CSSC[C@H](N)C(=O)N[C@@H](C)C(=O)N2CCC[C@H]2C(=O)N[C@@H](CCC(=O)O)C(=O)N3)C(=O)NCC(=O)N1)C(=O)O` (H-CAPECRSFCPDQKCLKDCGCI-OH; disulfide 1-18, 5-14, 9-20), the viability at 96 h, 0.05 µM in data set [1] is greater than 15%. As for “H-FNPVGVAFKGNNGKYLSRIHRSGIDYTEFAKDNTD-OH”, the Activity result with 1BR.3.GN [2] and in the data set with 1BR.3.GN [3] was “Non-Toxic” throughout.
